Laboratory results reported in US9278086B2, “Combination therapy and uses thereof for treatment and prevention of parasitic infection and disease” (The Royal Institution for the Advancement of …, priority 2010, dated 2016).

Key:
Type in all cases: in vivo
[1] = tested on: Plasmodium berghei ANKA; experiment: Plasmodium berghei ANKA infection (cerebral malaria model) in C57BL/6J mice, parasitemia and survival; settings: Cysteamine alone
Experimental: FIGS. 8A and 8B show the results of two independent experiments on the effect of cysteamine and artesunate combinations on the progression of Plasmodium berghei ANKA infection (parasitemia). Groups of 5 adult 18-20 g C57BL/6J males and females were infected intravenously with 1×10^6 erythrocytes parasitized with P. berghei ANKA at time “0”. Two hours later, mice were injected i.p with either Artemisinin alone or with Artemisinin/Cysteamine combinations (at the indicated concentrations in mg/kg body weight). In the case of the latter, Artemisinin was injected first in one quadrant, and cysteamine was injected second, 10-15 minutes later in another quadrant. The drug treatment was further repeated at days 1, 2 and 3 post-infection to emulate the standard 4-day test used in anti-malarial drug discovery. Starting at day 5, blood was collected, thin blood smears were prepared, and parasitemia was determined (400 erythrocytes counted, expressed as percentage parasitized erythrocytes). Error bars show standard deviations on the mean; and
FIGS. 9A and 9B show the results of two independent experiments on the effect of cysteamine and artesunate combinations on the survival of Plasmodium berghei ANKA-infected mice. Infection and drug administration were performed as described above for FIGS. 8A and 8B. Animals were monitored for the appearance and severity of cerebral symptoms (CM phase, shown as rectangle in graph), and moribund animals were euthanized, and time of death was recorded.
Intravenous infection with Plasmodium berghei ANKA is an accepted mouse model of cerebral malaria (CM) (Hunt, N. H. et al. 2006, Int. J. Parasitol. 36: 569-582). The infection causes the following pathology. First, there is appearance of blood parasitemia, starting at days 3 or 4, which can go up to 10% by day 7-8. Starting at day 5-6, there is emergence of cerebral symptoms caused by permeability of the blood brain barrier, concomitant to trapping of parasitized red cells in the microvasculature and acute pathological host inflammatory response in situ. This cerebral phase quickly progresses from tremors, to paralysis, to coma, and is uniformly lethal in mice by days 8-10. In this model, progress of infection and possibly drug effects may be monitored by a) appearance and intensity of blood parasitemia (between days 5-8), b) appearance of cerebral symptoms, and c) lethality.

[2] = tested on: Plasmodium chabaudi; experiment: 4-day test, P. chabaudi (10^7 pRBC i.v.) in pantetheinase-deficient A/J mice, blood parasitemia days 4 and 5; settings: A/J mice
Experimental: (§1) A/J and C57BL/6 (B6) mice were purchased from the Jackson Laboratories (Bar Harbor, Me.) and were housed at McGill University according to the guidelines of the Canadian Council on Animal Care. An LDH virus-free isolate of P. chabaudi AS was maintained by weekly passage in A/J mice. Mice were infected intravenously into the tail vein (i.v.) with 10^6 or 10^7 pRBC suspended in pyrogen-free saline. Following infection, the percentage of pRBC was determined daily on thin blood smears stained with Dif-Quik™ (Dade Behring, Newark, Del.), as described (Fortin A, et al. (2001) Proc Natl Acad Sci USA 98: 10793-10798).
(§2) Cysteamine hydrochloride (Sigma, Burlington ON) was prepared in PBS. Chloroquine hydrochloride, artesunate and dihydroartemisinin were provided by Dafra Pharmaceuticals; chloroquine was prepared in PBS, artesunate and DHA were prepared in 5% sodium bicarbonate and diluted in water to appropriate concentrations. All solutions were prepared fresh daily, filter sterilized and injections were performed intra-peritoneally (i.p) or subcutaneously (s.c.) for 4 days or according to treatment regimen. Mice were weighed prior to treatment to determine appropriate doses and injection volumes ranged from 100-400 μL per mouse. In the case of animals treated with two drugs, artemisinin derivatives were administered first (due to the short half life of cysteamine), followed by cysteamine 5-10 minutes later on alternate sides. Untreated control animals were injected with PBS alone.
Groups with normally distributed data points were compared using parametric unpaired t-tests, while groups with non-Gaussian distributions were compared using non-parametric Mann-Whitney tests. Survival differences were analyzed using the Log-Rank test. […] Standard error of percent inhibition was calculated from individual mice compared to the mean parasitemia level of the control group.
The effect of Cys on the potency and efficacy of the anti-malarial artemisinin derivatives was tested. […] Synergy (Tallarida R J (2001) J Pharmacol Exp Ther 298: 865-872) is defined as a total anti-malarial activity (reduction in blood parasitemia compared to untreated controls in a standard 4-day test) of the two compounds administered together being greater than the sum of the independent activities of the two compounds given alone. We tested combinations of Cys and either artesunate (ART) or dihydroartemisinin (DHA), the bioactive form of artemisinin. Pantetheinase-deficient mice were infected with P. chabaudi (10^7 pRBC, i.v.) and treated with Cys (170 mg/kg) and/or sub-optimal doses of ART (0.2 or 0.5 mg/kg) (FIG. 3A) or DHA (0.15 or 0.3 mg/kg) (FIG. 3B) from day 0-3 and parasitemia was monitored on days 4 and 5. […] Potentiation of the anti-malarial activity of ART (0.5 mg/kg) by Cys was also clearly evident in these C57BL/6 mice at both days 4 and 5 post-infection, with combined treatment causing a 65-71% reduction in parasitemia compared to PBS controls, greater than either compound tested alone (13-29%) (TABLE 1).
It was subsequently examined whether Cys potentiation of ART was dose dependent. Initially, Cys doses of 60, 100, 140 and 180 mg/kg were tested with a sub-optimal ART dose of 0.2 mg/kg. The drugs were administered from day 0-3 post infection, parasitemia was counted at day 4 and day 5 and the percent inhibition was calculated compared to PBS-treated controls (FIG. 4A). At 0.2 mg/kg, ART alone inhibits parasitemia by ˜20% (day 4) and 40% (day 5) while inhibition by Cys alone was partially dose dependent (varying between 10% and 25%). […] It was also assessed whether Cys could potentiate low doses of artesunate which, given alone, have no significant effect on parasitemia. In this experiment, Cys (170 mg/kg) was administered in combination, or not, with increasing doses of ART (0.05, 0.1, 0.2, 0.4 mg/kg) in the same 4-day experimental protocol.

[3] = tested on: Plasmodium chabaudi; experiment: Progression, resolution and survival of lethal P. chabaudi infection (10^6 pRBC i.v.) in A/J mice; settings: Cys alone 60 mg/kg, days 0-3
Experimental: as §1, §2
It was investigated if low dose Cys could potentiate standard doses of ART that show therapeutic activity in vivo and concurrently determined possible long-term effects on patent parasitemia, resolution of infection and survival in a lethal infection model. In this protocol, mice were infected with 10^6 pRBC P. chabaudi (i.v.) and treated with Cys (60 mg/kg) and/or ART (0.5, 1, 2, 5 and 10 mg/kg) for 4 days (days 0-3), while blood parasitemia and survival were followed for 22 days. Control animals treated with either PBS or Cys alone (60 mg/kg) developed high parasite burdens, which peaked at day 6, and all mice succumbed to the infection by day 7 (FIGS. 5A and 5C). […] Likewise, although all mice treated with 0.5 mg/kg ART succumbed to the infection early (day 8), mice additionally receiving Cys survived until day 9; moreover, addition of Cys to 1.0 mg/kg ART completely rescued animals from lethality of infection, with 100% survival in this group (FIGS. 5B, 5C).

[4] = cysteamine 170 mg/kg i.p. alone, days 0-3

SMILES: NCCS [Cysteamine]
- effect on survival of P. berghei-infected animals [1]: minor positive effect on survival
- Inhibition of parasitemia Day 4 [2, 4]: 28 % PBS control
- Inhibition of parasitemia Day 5 [2, 4]: 23 % PBS control
- Cys doses as low as which show potentiation of the ART effect ([2]; lower Cys dose range (20, 40 and 60 mg/kg) with ART (FIG. 4B)): 20 to 40 mg/kg
- day at which parasite burdens peaked [3]: 6 days
- day by which all mice succumbed to the infection [3]: ≤ 7 days
